{
  "source": "patent US10821142B2",
  "about": "“Cancer treatment and diagnosis” (priority 2015, dated 2020)",
  "key": {"[1]": {"test_system": "STING-dependent genes in murine embryonic fibroblasts", "assay": "Gene array and qPCR of WT and SKO MEFs treated with AOM or DMH", "assay_type": "cell-based, mouse", "settings": "AOM 0.14 mM for 8 hours", "procedure": "(§1) FIGS. 1A-1E show activation of STING-dependent genes by azoxymethane (AOM) (FIG. 1A) Gene array analysis of Wild type (WT) and STING deficient (SKO) mouse embryonic fibroblasts (MEFs) treated with AOM at 0.14 mM for 8 hours (Left) and 1,2-dimethylhydrazine (DMH) at 1 mM for 8 hours (Right). Highest variable genes are shown. Rows represent individual genes; columns represent individual samples. Grayscale indicates transcript levels below, equal to, or above the mean. Scale represents the intensity of gene expression (log 2 scale ranges between −2.4 and 2.4). (FIG. 1B) qPCR analysis of Cxcl10 and Ifit3 in MEFs treated with AOM and DMH same as FIG. 1A. (FIG. 1C) qPCR analysis of Cxcl10 in Human epithelial cell (FHC) treated with AOM and DMH at 1 mM for 24 hours. (FIG. 1D) FHC cells were transfected with STING or control siRNA for 72 hours followed by AOM and DMH treatment same as FIG. 1C, and were then subjected to Cxcl0 mRNA expression (Left). STING expression level after siRNA treatment was determined by qPCR (Right). […] (FIG. 1E) STING Immunohistochemistry staining of the colon tissue from WT and SKO mice (Left) and Human. All images were shown at original magnification, 200×.\nTowards these objectives, the AOM/DSS model, as described above, was utilized and analyzed the effects of AOM and precursor DMH upon STING signaling. Principally, wild type (WT) or STING-deficient (SKO) murine embryonic fibroblasts (MEF) were treated in vitro with DMH or metabolite AOM for 8 hours and microarray analysis performed to analyze the consequences to gene expression. […] The observed STING-dependent gene expression was confirmed following RT-PCR analysis of select mRNA such as Cxcl10 and IFIT3 (FIG. 1B). […] Thus, the DNA damaging agent DMH/AOM can invoke STING-dependent signaling.\nTotal RNA was isolated from cells or tissues with RNeasy Mini kit (74104, Qiagen, Valencia, Calif.). RNA quality was analyzed by Bionalyzer RNA 6000 Nano (Agilent Technologies, Santa Clara Calif.). […]"}, "[2]": {"test_system": "STING-dependent genes in FHC cells", "assay": "qPCR of Cxcl10 in human colon epithelial cells (FHC) treated with AOM", "assay_type": "cell-based", "settings": "FHC treated with RNAi to STING", "procedure": "as §1\nTowards these objectives, the AOM/DSS model, as described above, was utilized and analyzed the effects of AOM and precursor DMH upon STING signaling. […]"}, "IRF3/NF-κB translocation": {"test_system": "IRF3/NF-κB translocation", "assay": "Immunofluorescence of IRF3/NF-κB translocation in FHC treated with DMH/AOM", "assay_type": "cell-based, human", "settings": "3 mM for 48 hours", "procedure": "FIGS. 8A-8C show fluorescence microscopy analysis (related to FIG. 1) of DAPI staining in WT and SKO MEFs treated with 3 mM of AOM of 3 mM of DMH (FIG. 8A) and anti-dsDNA staining and the ration of cytoplasm to nucleus (FIG. 8B) in Human normal colon epithelial cells (FHC) treated with 3 mM of AOM or 3 mM of DMH for 48 hours. (FIG. 8C) Immunofluorescence microscopy analysis of FHC treated with AOM and DMH sane as FIG. 8A for 48 hours using p65 or IRF3 antibody. Images shown at original magnification, 160×.\nTo start determining the mechanisms underlining the cause of DMH/AOM-induced STING activity, MEF or FHC cells were treated with these drugs and observed by two different approaches, DAPI staining and immunofluorescence (IF) using anti-dsDNA antibody, the leakage of DNA into the cytosol (FIGS. 8A and 8B). Cytosolic DNA activates STING and stimulates STING/TBK1 trafficking via autophagy to endosomal regions harboring the transcription factors IRF3 and NF-κB, which triggers cytokine production. […]\nCells were cultured and treated in their appropriate media on Lab-Tek II chamber slides. […] Immunostaining was performed with rabbit-anti-STING polyclonal followed by fluorescence conjugated secondary antibodies (FITC-goat-anti-rabbit) (Invitrogen). […]"}, "type I IFN production": {"test_system": "type I IFN production", "assay": "IFNB induction (qPCR) in normal and colon cancer cells treated with AOM or DMH", "assay_type": "cell-based, human", "settings": "15 mM for 20 hours", "procedure": "FIG. 22. Normal and colon cancer cells were treated with AOM or DMH at 15 mM for 20 hours. IFNB induction was analyzed by qPCR. STING, IRF3 and NF-kB translocation was examined: +, translocation; −, no translocation.\nThe question arises as to why the STING-signaling pathway may be inhibited in colon adenocarcinoma. Recently, it was shown that STING-deficient cells and mice are sensitive to AOM-induced DNA damage. In this situation, the STING pathway may play a role in the DNA-damage response pathway, to induce the production of cytokines which facilitate tissue repair or damaged cell removal (Chatzinikolaou et al., 2014; Kidane et al., 2014; Lord and Ashworth, 2012). As such, innate immune induction of CA cells in response to DNA damaging agents was examined. […] Thus, the inhibition of the STING pathway may enable DNA damaged cells, harboring mutations, to escape part of the DNA damage response and the immune surveillance machinery to progress into a tumorigenic state."}, "colon": {"test_system": "colon", "settings": "mice; single injection of AOM followed by DSS via drinking water; cited from earlier work"}},
  "data": [
    {"smiles": "CN=[N+](C)[O-]", "note": "[AOM, Azoxymethane]", "values": [
      {"measurement": "mRNA production of innate immune related genes", "setting": "[1]; MEFs lacking STING (SKO)", "result": "marked decrease in the production of the same genes"},
      {"measurement": "mRNA production of innate immune related genes", "setting": "[1]; WT MEFs", "result": "activated mRNA production of a wide array of innate immune related genes"},
      {"measurement": "production of Cxcl10", "setting": "[2]", "result": "similarly reduced"},
      {"measurement": "translocation of IRF3/NF-κB", "setting": "IRF3/NF-κB translocation", "result": "could instigate the translocation of IRF3/NF-κB"},
      {"measurement": "production of type I IFN", "setting": "type I IFN production; CA cells with defective STING activated IRF3 or NF-kB activity", "result": "unable to generate type I IFN"},
      {"measurement": "production of type I IFN", "setting": "type I IFN production; normal colon epithelial (CCD841) and LS123", "result": "able to induce the production of type I IFN"},
      {"measurement": "colon cancer induced", "setting": "colon", "result": "~100", "unit": "%"}
    ]}
  ]
}
